Data published in ChEMBL document CHEMBL5550179, “Rutaecarpine-inspired scaffold-hopping strategy and Ullmann cross-coupling based synthetic approach: Identification of pyridopyrimidinone-indole based novel anticancer chemotypes” (Bioorg Med Chem, 2024).
Calls of active or inactive are those of the source. The rule behind the calls is not given here.

How the values were obtained:
[1] = tested on: MCF7; assay: Antiproliferative activity against human MCF7 cells assessed as cell growth inhibition incubated for 48 hrs by MTT assay; format: functional, cell-based; conditions: for IC50: Homo sapiens, MCF7, 48 h
[2] = tested on: HL-60; assay: Antiproliferative activity against human HL-60 cells; format: functional, cell-based
[3] = tested on: HeLa; assay: Antiproliferative activity against human HeLa cells; format: functional, cell-based
[4] = tested on: MCF7; assay: Inhibition of cell migration in human MCF7 cells assessed as reduction in migration rate incubated upto 48 hrs by scratch wound healing assay; format: functional, cell-based
[5] = tested on: A549; assay: Antiproliferative activity against human A549 cells assessed as cell growth inhibition incubated for 48 hrs by MTT assay; format: functional, cell-based; conditions: A549, 48 h
[6] = Antiproliferative activity against human MCF-10A cells assessed as cell viability incubated for 48 hrs by MTT assay relative to control; format: toxicity, cell-based; design: concentration or dose not given beside the values; conditions: read-out: Activity
[7] = Antiproliferative activity against human MCF-10A cells assessed as cell growth inhibition incubated for 48 hrs by MTT assay; format: toxicity, cell-based
[8] = tested on: HCT-116; assay: Antiproliferative activity against human HCT-116 cells assessed as cell growth inhibition incubated for 48 hrs by MTT assay; format: functional, cell-based; conditions: HCT-116, 48 h
[9] = tested on: MCF7; assay: Antiproliferative activity against human MCF7 cells assessed as reduction in number of colonies incubated for 48 hrs by crystal violet staining based analysis; format: functional, cell-based
[10] = Selectivity index, ratio of IC50 for antiproliferative activity against human MCF-10A cells to IC50 for antiproliferative activity against human MCF7 cells; format: toxicity, cell-based; conditions: MCF-10A cells and MCF7 cells, read-out: Ratio IC50
[11] = tested on: HCT-116; assay: Antiproliferative activity against human HCT-116 cells; format: functional, cell-based
[12] = tested on: MDA-MB-435; assay: Antiproliferative activity against human MDA-MB-435 cells; format: functional, cell-based
[13] = tested on: A549; assay: Antiproliferative activity against human A549 cells; format: functional, cell-based
[14] = tested on: SW480; assay: Antiproliferative activity against human SW480 cells; format: functional, cell-based
[15] = tested on: MGC-803; assay: Antiproliferative activity against human MGC-803 cells; format: functional, cell-based
[16] = biological target: Tubulin; assay: Inhibition of tubulin polymerization (unknown origin); format: protein-complex assay, Homo sapiens
[17] = tested on: ACHN; assay: Antiproliferative activity against human ACHN cells; format: functional, cell-based
[18] = tested on: MCF7; assay: Antiproliferative activity against human MCF7 cells; format: functional, cell-based
[19] = tested on: NCI-H460; assay: Antiproliferative activity against human NCI-H460 cells; format: functional, cell-based

COc1ccc2[nH]c(-c3cc(=O)n4ccccc4n3)c(CCN3C(=O)c4ccccc4C3=O)c2c1
IC50 [1]: > 20 µM

O=c1c2ccccc2nc2n1CCc1c-2[nH]c2c(Cl)c(Cl)ccc12
IC50 [2]: 150 nM

O=c1c2cc(Cl)ccc2nc2n1CCc1c-2[nH]c2ccccc12
IC50 [3]: 7 µM

COc1ccc(C(=O)NCCc2c(-c3cc(=O)n4ccccc4n3)[nH]c3ccc(OC)cc23)cc1
IC50 [1]: > 20 µM

O=C(O)c1ccccc1C(=O)NCCc1c(-c2cc(=O)n3ccccc3n2)[nH]c2ccccc12
IC50 [1]: > 20 µM

COc1ccc(C(=O)NCCc2c(-c3cc(=O)n4ccccc4n3)n(C(=O)OC(C)(C)C)c3ccccc23)cc1
inhibition [4]: Active
IC50 [5]: 18.4 µM
viability at 48 h [6]: 61.6%
IC50 at 48 h [7]: > 20 µM
IC50 [1]: 7.7 µM
IC50 [8]: 11 µM
Activity [9]: Active
selectivity ratio [10]: > 3.2

O=C(NCCc1c(-c2cc(=O)n3ccccc3n2)[nH]c2ccccc12)c1ccc(Cl)cc1
IC50 [1]: > 20 µM

COc1ccc2c(c1)c(CCN1C(=O)c3ccccc3C1=O)c(-c1cc(=O)n3ccccc3n1)n2C(=O)OC(C)(C)C
IC50 [1]: > 20 µM

CC(C)(C)OC(=O)n1c(-c2cc(=O)n3ccccc3n2)c(CCN2C(=O)c3ccccc3C2=O)c2ccccc21
IC50 [1]: > 20 µM

COc1ccc2[nH]c(-c3cc(=O)n4ccccc4n3)c(CCNC(=O)c3cc(OC)c(OC)c(OC)c3)c2c1
IC50 [1]: > 20 µM

O=C1c2cc(Cl)ccc2SC2c3[nH]c4ccc(O)cc4c3CCN12 (centres undefined)
IC50 [11]: < 3 nM
IC50 [12]: < 3 nM

O=C1c2ccccc2C(=O)N1CCc1c(-c2cc(=O)n3ccccc3n2)[nH]c2ccccc12
IC50 [1]: > 20 µM

O=c1c2ccccc2nc2n1CCc1c-2[nH]c2ccccc12 [RUTAECARPINE]
IC50 [5]: > 20 µM
viability at 48 h [6]: 60.2%
IC50 [3]: 26 µM
IC50 at 48 h [7]: > 20 µM
IC50 [1]: > 20 µM
selectivity ratio [10]: 1.2

CC(C)(C)OC(=O)n1c(-c2cc(=O)n3ccccc3n2)c(CCNC(=O)c2ccc(Cl)cc2)c2ccccc21
IC50 [5]: > 20 µM
viability at 48 h [6]: 83.4%
IC50 at 48 h [7]: > 20 µM
IC50 [1]: 15.8 µM
IC50 [8]: > 20 µM
selectivity ratio [10]: > 2.11

COc1ccc2c(c1)c(CCNC(=O)c1ccc(Cl)cc1)c(-c1cc(=O)n3ccccc3n1)n2C(=O)OC(C)(C)C
IC50 [5]: 20 µM
viability at 48 h [6]: 78.6%
IC50 at 48 h [7]: > 20 µM
IC50 [1]: 14 µM
IC50 [8]: 8.55 µM
selectivity ratio [10]: > 2.25

CN1c2ccccc2C(=O)N2CCc3c([nH]c4ccccc34)C21 (centres undefined)
IC50 [13]: 1300 nM
IC50 [14]: 10 µM
IC50 [15]: 12 µM

COc1ccc2[nH]c(-c3cc(=O)n4ccccc4n3)c(CCNC(=O)c3ccc(Cl)cc3)c2c1
IC50 [1]: > 20 µM

COc1cc(C2=NN(C(N)=O)C(c3cn(C)c4ccc(Br)cc34)C2)cc(OC)c1OC (centres undefined)
IC50 [16]: 2120 nM

CN1c2ccccc2C(=O)N2CCc3c([nH]c4ccc(Cl)cc34)C21 (centres undefined)
IC50 [17]: 1000 nM
IC50 [18]: 1000 nM

O=c1[nH]cc(F)c(=O)[nH]1 [FLUOROURACIL]
IC50 [5]: > 20 µM
viability at 48 h [6]: 50%
IC50 at 48 h [7]: 19.5 µM
IC5 ([1]; time 48 hrs): 6.5 µM
IC50 [8]: > 20 µM
selectivity ratio [10]: 3

O=C(NCCc1c[nH]c2ccccc12)c1ccc(-c2ccccc2)cc1
IC50 [19]: 2000 nM

O=c1cc(-c2ccc(Cl)cc2)nc2ccccn12
IC50 [18]: 1800 nM

COc1cc(C(=O)NCCc2c(-c3cc(=O)n4ccccc4n3)[nH]c3ccccc23)cc(OC)c1OC
IC50 [1]: > 20 µM
